This is an account of results in patent US6864259B2, “Antibacterial agents” (Warner-Lambert Company, priority 2001, dated 2005).

One data set deals with E. coli B90. Put plainly: Test A antibacterial assay, standard microtitration (MIC). In kind it is cell-based. The settings on record: Escherichia coli, Gram negative, read-out: Minimum Inhibitory Concentrations, E. coli B90. The protocol:
(§1) The compounds of the present invention were tested against an assortment of Gram-negative and Gram-positive organisms using standard microtitration techniques (Cohen, et al., Antimicrob. Agents Chemother., 1985;28:766; Heifetz, et al., Antimicrob. Agents Chemother., 1974;6:124). […]

A further data set deals with E. coli MC 4100. The description is as above. The class given is cell-based. The settings on record: Escherichia coli, MC4100; Gram negative; read-out: Minimum Inhibitory Concentrations, E. coli MC 4100. As to the method:
as §1

The next data set concerns E. coli Tol C. The description is as above. In kind it is cell-based. The settings on record: Escherichia coli, read-out: Minimum Inhibitory Concentrations, E. coli Tol C. As to the method:
as §1

The test system of the next data set is E. faecalis RB1. Described as above. The class given is cell-based. Conditions: Enterococcus faecalis, Gram positive, read-out: Minimum Inhibitory Concentrations, E. faecalis RB1. The protocol: as §1
For the next data set, the system named is S. aureus 29213. The data set is described as above. The class given is cell-based. Conditions: Staphylococcus aureus, Gram positive, read-out: Minimum Inhibitory Concentrations, S. aureus 29213. The protocol: as §1
In the next data set the test system is S. pyogenes C203. The description is as above. In kind it is cell-based. Conditions: Streptococcus pyogenes, Gram positive, read-out: Minimum Inhibitory Concentrations, S. pyogenes C203. As to the method:
as §1

The target of a further data set is E. coli gyrase (Escherichia coli, UniProt P0AES4+P0AES6). Put plainly: biochemical. The settings on record: supercoiling of relaxed pBR322, 30 minutes at 37° C.
Sequence of E. coli gyrase (P0AES4 whole entry, one chain of several): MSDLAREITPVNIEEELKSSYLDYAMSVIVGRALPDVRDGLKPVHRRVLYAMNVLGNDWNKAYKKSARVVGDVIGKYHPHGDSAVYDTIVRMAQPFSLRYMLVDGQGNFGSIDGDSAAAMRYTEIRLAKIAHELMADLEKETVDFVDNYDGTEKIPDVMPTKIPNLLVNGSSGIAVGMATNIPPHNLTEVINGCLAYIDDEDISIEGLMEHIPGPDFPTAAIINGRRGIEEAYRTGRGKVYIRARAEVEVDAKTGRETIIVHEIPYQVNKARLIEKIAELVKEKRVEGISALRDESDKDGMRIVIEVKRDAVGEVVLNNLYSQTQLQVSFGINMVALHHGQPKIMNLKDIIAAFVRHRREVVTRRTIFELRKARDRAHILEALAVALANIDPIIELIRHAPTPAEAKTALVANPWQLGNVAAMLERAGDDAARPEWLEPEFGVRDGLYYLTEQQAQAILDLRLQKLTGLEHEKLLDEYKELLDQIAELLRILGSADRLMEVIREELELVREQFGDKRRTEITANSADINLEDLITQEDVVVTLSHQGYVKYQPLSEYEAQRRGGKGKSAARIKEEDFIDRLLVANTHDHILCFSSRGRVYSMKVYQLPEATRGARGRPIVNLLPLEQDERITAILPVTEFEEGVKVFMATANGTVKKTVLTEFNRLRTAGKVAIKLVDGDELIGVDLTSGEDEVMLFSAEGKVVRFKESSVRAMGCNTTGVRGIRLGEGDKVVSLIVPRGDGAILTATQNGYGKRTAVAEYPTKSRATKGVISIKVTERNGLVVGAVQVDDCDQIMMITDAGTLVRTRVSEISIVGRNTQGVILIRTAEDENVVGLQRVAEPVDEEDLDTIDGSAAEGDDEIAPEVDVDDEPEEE
In a further data set the test system is N. gonorrhoeae 2637. The experiment in a line: Test C cross resistance antibacterial assay (MIC). In kind it is cell-based, Neisseria gonorrhoeae.
Another data set relates to N. gonorrhoeae 2709. The experiment in a line: Test C cross resistance antibacterial assay (MIC). In kind it is cell-based. The settings on record: Neisseria gonorrhoeae, 2709, read-out: Minimum Inhibitory Concentrations, N. g. 2709.
The next data set has as its system S. aureus 2552. Put plainly: Test C cross resistance antibacterial assay (MIC). In kind it is cell-based. The protocol: (§2) The compounds of the present invention were tested against an assortment of ciprofloxacin resistant E. coli and S. aureus organisms described below using standard microtitration techniques (Cohen, et al., Antimicrob. Agents Chemother., 1985;28:766; Heifetz, et al., Antimicrob. Agents Chemother., 1974;6:124).

For a further data set, the system named is S. aureus UC-76. Put plainly: Test C cross resistance antibacterial assay (MIC). Conditions: Staphylococcus aureus. In kind it is cell-based. As to the method:
as §2

Another data set relates to S. pyogenes. The experiment in a line: In vivo median protective dose in mice given lethal systemic infections. The settings on record: lethal systemic infection.
Setting [1] is: Neisseria gonorrhoeae, 2637, derivative of MS11, parent strain, read-out: Minimum Inhibitory Concentrations, N. g. 2637.
[2] abbreviates: Staphylococcus aureus, 2552, upregulated norA pump, read-out: Minimum Inhibitory Concentrations, S. aureus 2552.
Setting [3] is: UC76, wild type sensitive strain, read-out: Minimum Inhibitory Concentrations, S. aureus UC-76.

SMILES strings stand for the structures. pIC50: −log10 of the molar value. In brackets after ≈: the same amount, converted by molar mass. Structures can show the parent of a compound that is named as a salt. Where two headings read alike, the source gives them in different places.

By pIC50 is commonly meant −log10 of the IC50, conventionally taken in molar units. A higher pIC50 goes with a low IC50. Usually melting point stands for the temperature, or range, at which the solid turns liquid. Take `Cc1c(N2CC[C@@H]([C@H](C)N)C2)c(F)cn2c(=O)n(N)c(=O)c(C3CC3)c12.Cl` [Compound 5b, 2-Amino-6-[(R)-3-((S)-1-aminoethyl)pyrrolidin-1-yl]-4-cyclopropyl-7-fluoro-5-methyl-pyrido[1,2-c]pyrimidine-1,3-dione, hydrochloride]: the melting point is 218 to 220 °C. Moreover, the MIC with E. coli B90 was 0.06 µg/mL. For the same molecule, the MIC in the data set with E. coli MC 4100 came out at 0.5 µg/mL. Further, the MIC in the data set with E. coli Tol C was determined as 0.03 µg/mL. Also, the MIC with E. faecalis RB1 came to 0.13 µg/mL. In addition, in the data set on S. aureus 29213, the MIC came out at 0.25 µg/mL. For the same molecule, the MIC in the data set with S. pyogenes C203 turned out to be 0.008 µg/mL. The pIC50 against E. coli gyrase was 6.30. Moreover, the MIC in the data set on N. gonorrhoeae 2637 (setting [1]) amounted to 0.13 µg/mL. Also, the MIC in the data set with N. gonorrhoeae 2709 came to 0.25 µg/mL. Further, the MIC in the data set with S. aureus 2552 (setting [2]) worked out at 0.25 µg/mL. Besides, the MIC in the data set on S. aureus UC-76 (setting [3]) is 0.06 µg/mL.

As for `Cc1c(N2CC(C(C)N)C(C)(C)C2)c(F)cn2c(=O)n(N)c(=O)c(C3CC3)c12` (stereo not shown) [Compound 5c, 2-Amino-6-[4-(1-amino-ethyl)-3,3-dimethylpyrrolidin-1-yl]-4-cyclopropropyl-7-fluoro-5-methyl-pyrido[1,2-c]pyrimidine-1,3-dione, hydrochloride], the MIC in the data set with E. coli B90 amounted to 2 µg/mL; with E. coli MC 4100 it was 16 µg/mL; in the data set on E. coli Tol C it was 0.5 µg/mL; in the data set with E. faecalis RB1, 2 µg/mL; in the data set on S. aureus 29213, 2 µg/mL; with S. pyogenes C203 it was 0.5 µg/mL. Moreover, the pIC50 against E. coli gyrase was 6.15.

Take `Cc1c(N2CC[C@@H]([C@@H](C)N)C2)c(F)cn2c(=O)n(N)c(=O)c(C3CC3)c12.Cl`: the melting point fell in the range of 218 to 221 °C.

Take `Cc1c(N2CCCC2)c(F)cn2c(=O)n(N)c(=O)c(C3CC3)c12` [Compound 4g, 2-Amino-4-cyclopropyl-7-fluoro-5-methyl-6-pyrrolidin-1-yl-pyrido[1,2-c]pyrimidine-1,3-dione]: the melting point lay in the range of 202 to 204 °C. For the same molecule, the MIC in the data set on E. coli B90 worked out at 0.25 µg/mL (≈ 0.785 µM). In the data set on E. coli MC 4100, the MIC was found to be 16 µg/mL (≈ 50.3 µM). For the same molecule, the MIC in the data set with E. coli Tol C was < 0.06 µg/mL. Besides, the MIC in the data set with E. faecalis RB1 came to 2 µg/mL (≈ 6.28 µM). The MIC in the data set on S. aureus 29213 is 1 µg/mL (≈ 3.14 µM). The MIC with S. pyogenes C203 was 1 µg/mL (≈ 3.14 µM). Further, the pIC50 against E. coli gyrase was 5.77.

With `Cc1c(N2C[C@H](CN)[C@H](F)C2)c(F)cn2c(=O)n(N)c(=O)c(C3CC3)c12` (racemic) [Compound 4j, 2-Amino-6-((3S,4S) and (3R,4R)-3-aminomethyl-4-fluoropyrrolidin-1-yl)-4-cyclopropyl-7-fluoro-5-methylpyrido[1,2-c]pyrimidine-1,3-dione], the MIC is 0.25 µg/mL (≈ 0.684 µM) with E. coli B90; 2 µg/mL (≈ 5.47 µM) with E. coli MC 4100; 0.13 µg/mL (≈ 0.356 µM) with E. coli Tol C; 0.5 µg/mL (≈ 1.37 µM) in the data set on E. faecalis RB1; 0.03 µg/mL (≈ 0.0821 µM) in the data set on S. pyogenes C203. This molecule also gave a pIC50 at E. coli gyrase of 5.82.

Turning to `Cc1c(N2CC[C@@H](C3(N)CC3)C2)c(F)cn2c(=O)n(N)c(=O)c(C3CC3)c12` [Compound 4i, 2-Amino-6-[(R)-3-(1-aminocyclopropyl)pyrrolidin-1-yl]-4-cyclopropyl-7-fluoro-5-methylpyrido[1,2-c]pyrimidine-1,3-dione], the MIC was found to be 0.03 µg/mL (≈ 0.0803 µM) with E. coli B90; 0.5 µg/mL (≈ 1.34 µM) in the data set with E. coli MC 4100; 0.015 µg/mL (≈ 0.0402 µM) in the data set on E. coli Tol C; 0.06 µg/mL (≈ 0.161 µM) in the data set with E. faecalis RB1; 0.06 µg/mL (≈ 0.161 µM) in the data set with S. aureus 29213; 0.015 µg/mL (≈ 0.0402 µM) in the data set on S. pyogenes C203. Moreover, the MIC in the data set with N. gonorrhoeae 2637 (setting [1]) turned out to be 0.03 µg/mL (≈ 0.0803 µM); in the data set on N. gonorrhoeae 2709, 0.13 µg/mL (≈ 0.348 µM); in the data set on S. aureus 2552 (setting [2]) it was 0.06 µg/mL (≈ 0.161 µM); in the data set with S. aureus UC-76 (setting [3]) it was 0.06 µg/mL (≈ 0.161 µM). The pIC50 on E. coli gyrase is 6.19. In addition, in the data set on S. pyogenes, the “In Vivo Median Protective Dose (PD50) in Mice (PO)” value (from here on “In Vivo Median Protective Dose”) turned out to be 2.1 mg/kg.

As for `Cc1c(N2CCC(N)C2)c(F)cn2c(=O)n(N)c(=O)c(C3CC3)c12.Cl` (stereo not shown), the melting point was in the range of 246 to 248 °C.

`Cc1c(N2CC(C)C(C(C)N)C2)c(F)cn2c(=O)n(N)c(=O)c(C3CC3)c12.Cl` (stereo not shown) showed a melting point of 238 to 240 °C.

`Cc1c(N2CCC(C(C)O)C2)c(F)cn2c(=O)n(N)c(=O)c(C3CC3)c12` (stereo not shown) [Compound 4h] came in with a melting point of 172 to 174 °C. Further, the MIC with E. coli B90 amounted to 0.13 µg/mL (≈ 0.359 µM). In addition, the MIC in the data set with E. coli MC 4100 was 16 µg/mL (≈ 44.1 µM). Also, the MIC in the data set on E. coli Tol C was < 0.06 µg/mL. Besides, the MIC in the data set on E. faecalis RB1 was 2 µg/mL (≈ 5.52 µM). In the data set with S. aureus 29213, the MIC came to 0.5 µg/mL (≈ 1.38 µM). The MIC in the data set on S. pyogenes C203 stood at 2 µg/mL (≈ 5.52 µM). This molecule also had a negative logarithm of the IC50 (pIC50) on E. coli gyrase of 5.92. In the data set with S. aureus 2552 (setting [2]), the MIC amounted to 1 µg/mL (≈ 2.76 µM). For the same molecule, the MIC in the data set on S. aureus UC-76 (setting [3]) is 0.5 µg/mL (≈ 1.38 µM).

Consider `O=C(O)c1cn(C2CC2)c2cc(N3CCNCC3)c(F)cc2c1=O` [Ciprofloxacin, ciprofloxacin, reference compound], for which the MIC was < 0.01 µg/mL in the data set with E. coli B90; < 0.02 µg/mL in the data set on E. coli MC 4100; < 0.01 µg/mL in the data set with E. coli Tol C; 0.5 µg/mL (≈ 1.51 µM) in the data set with E. faecalis RB1; 0.5 µg/mL (≈ 1.51 µM) in the data set with S. aureus 29213; 0.5 µg/mL (≈ 1.51 µM) with S. pyogenes C203. Moreover, the MIC with N. gonorrhoeae 2637 (Neisseria gonorrhoeae, 2637, read-out: Minimum Inhibitory Concentrations, N. g. 2637) amounted to 0.002 µg/mL (≈ 0.00604 µM); in the data set on N. gonorrhoeae 2709, 0.06 µg/mL (≈ 0.181 µM); in the data set on S. aureus 2552 (Staphylococcus aureus, 2552, read-out: Minimum Inhibitory Concentrations, S. aureus 2552), 2 µg/mL (≈ 6.04 µM); with S. aureus UC-76 (UC76, read-out: Minimum Inhibitory Concentrations, S. aureus UC-76), 0.13 µg/mL (≈ 0.392 µM). Also, the “In Vivo Median Protective Dose” value in the data set on S. pyogenes was >100 mg/kg.

`Cc1c(N2CC(C(C)N)C(C)(C)C2)c(F)cn2c(=O)n(N)c(=O)c(C3CC3)c12` (stereo not shown) (as salt: hydrochloride) [Compound 5c, 2-Amino-6-[4-(1-amino-ethyl)-3,3-dimethylpyrrolidin-1-yl]-4-cyclopropropyl-7-fluoro-5-methyl-pyrido[1,2-c]pyrimidine-1,3-dione, hydrochloride] had a melting point of 238 to 240 °C.

As for `CN[C@@H](C)[C@@H]1CCN(c2c(F)cn3c(=O)n(N)c(=O)c(C4CC4)c3c2C)C1` [Compound 4f, 2-Amino-4-cyclopropyl-7-fluoro-5-methyl-6-[3-(1-methylaminoethyl)pyrrolidin-1-yl]pyrido[1,2-c]pyrimidine-1,3-dione], the MIC stood at 0.13 µg/mL (≈ 0.346 µM) in the data set with E. coli B90; 2 µg/mL (≈ 5.33 µM) with E. coli MC 4100; 0.03 µg/mL (≈ 0.0799 µM) with E. coli Tol C; 0.06 µg/mL (≈ 0.16 µM) with E. faecalis RB1; 0.25 µg/mL (≈ 0.666 µM) with S. aureus 29213; 0.015 µg/mL (≈ 0.04 µM) with S. pyogenes C203. Also, the MIC in the data set with N. gonorrhoeae 2637 (setting [1]) is 0.25 µg/mL (≈ 0.666 µM); in the data set on N. gonorrhoeae 2709, 0.5 µg/mL (≈ 1.33 µM); with S. aureus 2552 (setting [2]), 0.5 µg/mL (≈ 1.33 µM); in the data set on S. aureus UC-76 (setting [3]), 0.06 µg/mL (≈ 0.16 µM). This molecule had a pIC50 against E. coli gyrase of 6.00. Moreover, the “In Vivo Median Protective Dose” value in the data set with S. pyogenes is listed as 1.2 mg/kg.
